According to patent US20230024584A1, “ANTI-CANCER COMPOSITIONS AND METHODS” (University of Kentucky Research Foundation, priority 2019, published 2023):

Tests used:
Format in all cases: cell-based
[1] = system: DLD1, PT130 and SW480 cells; assay: Clonogenic assay, colon cancer cell lines; settings: 1.25, 2.5 or 5 μM for 72 h, then 10 days culture
Method: Initially, 100 DLD1, PT130 or SW480 cells were seeded into 6-cm cell culture dishes. After overnight culture, vehicle control (DMSO) or lomitapide (final concentration: 1.25, 2.5 or 5 μM) were added into the corresponding dishes. After 72 h culture, the DMSO- or lomitapide-containing media were removed and the fresh culture media were added in followed by additional 10 days culture. The culture media were replaced with fresh media every three days. At the end of cell culture, the final clones in dishes were fixed by 4% paraformaldehyde and stained with crystal violet. FIG. 32A includes representative images from each treatment groups. FIGS. 32B-32D include quantitation of clone numbers (mean±standard deviation, n=3). * p<0.05, compared to vehicle control (negative control) treatment group.

[2] = system: MCF-7, LM2 and 4T1luc cells; assay: Apoptosis (7-AAD/APC-annexin V flow cytometry), breast cancer cells; settings: 1.25, 2.5 or 5 μM, 48 h
Method: With reference to FIGS. 26A-26C, studies were also conducted to determine the effect of lomitapide treatment on apoptosis of breast cancer cells. Initially, 0.1-0.3 million MCF-7, LM2 or 4T1^luc cells were seeded into 6 cm cell culture dishes and cultured overnight. Vehicle control (DMSO) or lomitapide (final concentration: 1.25, 2.5 or 5 μM) was added then into corresponding dishes. After 48 h incubation, the cells were harvested, stained by 7-AAD/APC-annixin V and analyzed by flow cytometry. The results are presented as mean±standard deviation (n=3). * p<0.05, compared to vehicle control (negative control) treatment group.

PC9GR4 and A549 cells = assay: Sphere formation assay, lung cancer cells; settings: 1.25, 2.5 or 5 μM, 10 days
Method: With reference to FIGS. 30A and 30B, studies were also conducted to determine the effect of lomitapide treatment on the cancer stem cell-like property of lung cancer cells. Initially, 2500 lung cancer PC9GR4 or A549 cells were seeded into […] 24-well plates; meanwhile, vehicle control (DMSO) or lomitapide (final concentration: 1.25, 2.5 or 5 μM) were added into corresponding wells. After 10-days continuous culture, the final spheres formed were imaged and counted under an inverted phase-contrast microscope. FIG. 30A includes representative sphere images from each treatment groups. FIG. 30B includes the quantitation of sphere numbers (mean±standard deviation, n=3). * p<0.05, compared to vehicle control (negative control) treatment group.

breast cancer cells = assay: Cell cycle analysis, breast cancer cells; settings: 5 μM; 24, 48 and 72 h
Method: Initially, 0.1˜0.3 million of breast cancer cells were seeded into 6 cm culture dish and cultured overnight; then, the culture media were switched into FBS free medium for serum-starvation for 24 h for cell synchronization. After synchronization, the culture media were changed into FBS-containing medium and vehicle control (DMSO) or lomitapide (final concentration: 5 μM) were added into corresponding dishes. After 24, 48 and 72 h culture, cells were harvested, fixed by ice-cold ethanol, stained by PI for flow cytometry analysis of cell cycle. The results are presented as mean±standard deviation (n=3). * p<0.05, compared to vehicle control (negative control) treatment group.

[3] = system: SUM159, LM2, MCF-7, MB-MDA-453, 4T1 and 4T1luc cells; assay: MTT assay, breast cancer cell lines; settings: 1.25, 2.5 and 5 μM; 24, 48, 72 h
Method: With reference to FIGS. 21A-21F, MTT assays were performed to determine the effect of lomitapide treatment on various breast cancer cell lines. Initially, 2500 SUM159 or LM2 cells, 5000 MCF-7 or MB-MDA-453 cells, 1000 4T1 or 4T1^1uc cells were seeded into 96-well plates. After overnight culture, vehicle (DMSO) or lomitapide (final concentration: 1.25, 2.5 and 5 μM) were added into the corresponding wells. After 24 h, 48 h, and 72 h incubation, the culture media were aspirated off and 50 μl of 0.5 mg/mL of MTT containing medium was added into each well. After 3 h incubation, 200 μl of DMSO were added into each well. The OD value of each well was read under the wavelength of 570 nm. The results are presented as mean±standard deviation (n=6) * p<0.05, compared to vehicle control (negative control) treatment group.

lomitapide
colon cancer cell growth (clone numbers) [1]: significantly reduces colon cancer cell growth
apoptosis [2]: induces apoptosis
cancer stem cell-like property (sphere numbers) (PC9GR4 and A549 cells): significantly reduces cancer stem cell-like property
cell cycle distribution (breast cancer cells): significant G1 phase cell cycle arrest
breast cancer cell growth (MTT) [3]: significantly reduces breast cancer cell growth
